The values below come from US20090047287A1, “MODULATION OF BONE FORMATION” (Wyeth, priority 2006, published 2009).

One data set has as its system mouse calvarial bones. The data set is described as follows: Ex vivo mouse calvarial culture with shRNA adenovirus and antibody, histomorphometry (Bioquant). It is filed as cell-based. The conditions noted are these: mouse calvariae, 7 days; shRNA 5×10^7 viral particles/ml, antibody 12 μg/ml; vs scrambled shRNA and IgG. The method, then:
We next tested if in vitro effects of Ror2 activation and 14-3-3β inhibition translate into increased bone formation in ex vivo organ cultures. Calvarial bones of 4 days old mouse littermates were infected with adenoviruses containing scrambled shRNA or 14-3-3β-specific shRNA at 5×10^7 viral particles/ml; and 48 h later were treated with 12 μg/ml of anti-Ror2 antibody or non-specific IgG in presence of 15 μg/ml calcein. After 7 days of culture with adenoviruses and antibodies, the bones were stained with hematoxylin-eosin and consistent 300 μm stretches (450 μm away from frontal sutures) were subjected to histomorphometric analysis using Bioquant-NOVA MR 5.50.8 (Nashville, Tenn.). Under control conditions of scrambled shRNA infection and IgG treatment, 600 μm length of calvaria contained 9394±1333 μm^2 of bone area and 39.5±7.4 osteoblasts.

The target in a further data set is T1, Ror2 tyrosine kinase (Homo sapiens, UniProt Q01974).
T1 construct: western immunoblotting for the endogenous Ror2 protein; endogenous in cells; host or cells: U2OS
Put plainly: Ror2 activation in U2OS cells, phosphotyrosine precipitation, Ror2 blot. Format: cell-based. The settings on record: untransfected U2OS cells, antibody 1 h at 37° C., vs IgG control. As for the experimental part: (§1) Cells were solubilized in lysis buffer (150 mM NaCl, 50 mM Tris-HCl, pH 7.5, 1 mM EDTA, 1% Triton X100) supplemented with protease and phosphatase inhibitor cocktails (Sigma) and the extracts were clarified by centrifugation at 10,000×g for 10 min at 4° C. For Flag immunoprecipitation, 1 mg of total cell lysates was incubated with 30 μl of M2 Flag affinity agarose (Sigma) for 1 h with rotation at 4° C. The beads were collected by centrifugation and washed three times in lysis buffer containing 350 mM NaCl and three times in lysis buffer. For 14-3-3β precipitation, 15 μl of 14-3-3β antibody was incubated with 30 μl of protein A sepharose in 1 ml of lysis buffer overnight at 4° C. and the beads were collected by centrifugation and washed in lysis buffer prior to addition of 1 mg of total cell lysates. The binding reaction was carried out for 2 h at 4° C. with mild rotation and the beads were collected and washed as for Flag precipitation. For phosphotyrosine precipitation, 1 mg (for detecting over-expressed proteins) or 1.5 mg (for detecting endogenous proteins) of cellular extract was added to 100 μl of G410 beads and allowed to attach for 3 h at 4° C. At this time, P-Tyr-100 immobilized antibody (100 μl) was added to the mix for an additional 3 h. All beads were collected by centrifugation and washed as for Flag precipitation. […]

Another data set concerns the target T2, Ror2 receptor (Homo sapiens, UniProt Q01974).
T2 construct: expressed in transfected cells; host or cells: U2OS
Put plainly: Ror2 dimerization in U2OS cells, Flag/His-tagged Ror2 co-immunoprecipitation. Format: cell-based. The conditions noted are these: antibody 1 h at 37 C, vs non-specific goat IgG. As for the experimental part: For Ror2 plasmid transfections, U2OS cells were seeded at ˜80% confluent density and transfected 24 h later with 11 μg of total plasmid DNA per 19.6 cm^2 using Fugene6 transfection reagent (Roche Applied Science, Indianapolis, Ind.) per manufacturer's instructions. For siRNA transfections, U2OS cells were plated on 6-well plates at 52,000 cells/cm^2 and transfected 24 h later with 25 nM of Ror2 siRNA or non-specific siRNA (both from Dharmacon Inc., Lafayette, Colo.) using 10 μl of Lipofectamine 2000 reagent per manufacturer's instructions.
Cells were solubilized in lysis buffer (150 mM NaCl, 50 mM Tris-HCl, pH 7.5, 1 mM EDTA, 1% Triton X100) supplemented with protease and phosphatase inhibitor cocktails (Sigma) and the extracts were clarified by centrifugation at 10,000×g for 10 min at 4° C. For Flag immunoprecipitation, 1 mg of total cell lysates was incubated with 30 μl of M2 Flag affinity agarose (Sigma) for 1 h with rotation at 4° C. The beads were collected by centrifugation and washed three times in lysis buffer containing 350 mM NaCl and three times in lysis buffer. For 14-3-3β precipitation, 15 μl of 14-3-3β antibody was incubated with 30 μl of protein A sepharose in 1 ml of lysis buffer overnight at 4° C. and the beads were collected by centrifugation and washed in lysis buffer prior to addition of 1 mg of total cell lysates. […]

The next data set deals with T3, Ror2-TrkB chimera (Homo sapiens, UniProt Q01974, T245A).
T3 construct: extracellular domain of Ror2 (aa 1-407) fused to the transmembrane and intracellular domains of TrkB (aa 432-822); expressed in transfected cells
The data set is described as follows: Ror2-TrkB chimera CRE-luciferase reporter assay in HEK293 cells. The conditions noted are these: HEK-CRE cells expressing Ror2-TrkB chimera, 24 h, compared to non-specific IgG. Format: cell-based. From the text: FIG. 12 illustrates generation of a high throughput, high sensitivity assay for Ror2 activity. A. Schematic representation of the assay that utilizes the signaling pathway of the TrkB receptor. The TrkB receptor is activated by ligand-induced homo-dimerization that causes phosphorylation of Erk and stimulation of the cAMP response element (CRE) in the promoter of target genes. We generated a chimeric receptor consisting of the extracellular domain of Ror2 (aa 1-407) fused to the transmembrane and intracellular domains of TrkB (aa 432-822). When using this chimera, agents that cause Ror2 dimerization activate TrkB signaling pathway and this activation can be assessed by a CRE promoter-luciferase reporter assay. B. HEK293 cells were stably transfected with the Ror2-TrkB chimera and CRE-luciferase plasmids, treated with the indicated amounts of the anti-Ror2 antibody or non-specific IgG for 24 h, and luciferase activity was assessed. Luciferase activity observed upon treatment with the non-specific IgG was set at 1. […]
The TrkB receptor is activated by ligand-induced homo-dimerization that causes phosphorylation of Erk and stimulation of the cAMP response element (CRE) in the promoter of target genes. […] Colonies were grown at 37 C with 350 μg/ml hygromycin and levels of Ror2-TrkB expression were assessed by western immunoblotting and immunocytochemistry. […]
(In general: A reporter such as luciferase makes a cellular process visible.)

The next data set relates to 14-3-3β protein. Put plainly: Ror2 activation in U2OS cells, phosphotyrosine precipitation, 14-3-3β blot. The settings on record: untransfected U2OS cells, antibody 1 h at 37° C., vs IgG control. Format: cell-based, human. As for the experimental part: as §1
Data set [1] relates to human mesenchymal stem cells (hMSC). Put plainly: Mineralized matrix formation in hMSC, alizarin red-S staining. It is filed as cell-based. The method, then: Human MSC were seeded at 6,000/cm^2 in 12-, or 6-well plates and allowed to adhere and proliferate overnight. Cells were infected for 24 h in 0.4 ml/cm^2 MSCGM using Ror2, Ror2KD, or β-gal adenoviruses at multiplicity of infection (MOI)=750 in presence of hCAR (MOI=750) to improve infection efficiency. After 24 h, cells were washed once in PBS and MSCGM, MSCGM supplemented with 0.05 mM ascorbic acid and 10 mM β-glycerophosphate, or MSCGM containing adipogenic supplements (PT-3004, Cambrex) were added. Where indicated, 100 nM dexamethasone (dex) and/or the indicated antibodies were added to the medium. For shRNA infection, cells were seeded at 6,000/cm^2 in 12- or 6-well plates and allowed to adhere and proliferate for 3 days. Cells were infected for 72 h in 0.4 ml/cm^2 MSCGM using adenoviruses coding for Ror2-specific shRNA or EGFP-specific shRNA at 4,000 viral particles per cell (based on the original seeding density) in presence of hCAR (MOI=750). After 72 h, cells were washed once in PBS, and MSCGM or MSCGM supplemented with 0.05 mM ascorbic acid, 10 mM β-glycerophosphate were added. Where indicated 100 nM dex and/or specific antibodies were added. Every 5 days, either the entire medium or ½ of it was replaced with fresh medium.
Formation of mineralized nodules by hMSC was determined on 12-well plates by alizarin red-S histochemical staining. The cells and matrix were fixed at RT for 1 h with 70% (v/v) ethanol, washed with de-ionized water and stained for 10 min at RT with 40 mM alizarin red-S, pH 4.2. The stained matrix was washed with de-ionized water and photographed. To quantify the level of alizarin red-S staining, the dye was eluted with 1 ml/well of 10% (w/v) Cetylpyridinium Chloride. Alizarin red-S in the eluted samples was quantified (versus a standard curve of 0-800 μM dye) at 562 nm with a microplate reader.

Data set [2] has as its target T4, purified recombinant human GST-14-3-3β (Biomol), P31946.
T4 chain: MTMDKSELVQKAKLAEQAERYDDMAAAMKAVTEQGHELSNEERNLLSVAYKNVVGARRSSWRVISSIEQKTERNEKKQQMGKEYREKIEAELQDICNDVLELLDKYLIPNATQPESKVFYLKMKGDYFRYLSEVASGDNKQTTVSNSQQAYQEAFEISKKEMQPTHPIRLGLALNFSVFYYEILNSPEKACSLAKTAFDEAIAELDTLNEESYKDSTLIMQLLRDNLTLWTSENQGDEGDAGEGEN

T1 sequence (Q01974 34-943): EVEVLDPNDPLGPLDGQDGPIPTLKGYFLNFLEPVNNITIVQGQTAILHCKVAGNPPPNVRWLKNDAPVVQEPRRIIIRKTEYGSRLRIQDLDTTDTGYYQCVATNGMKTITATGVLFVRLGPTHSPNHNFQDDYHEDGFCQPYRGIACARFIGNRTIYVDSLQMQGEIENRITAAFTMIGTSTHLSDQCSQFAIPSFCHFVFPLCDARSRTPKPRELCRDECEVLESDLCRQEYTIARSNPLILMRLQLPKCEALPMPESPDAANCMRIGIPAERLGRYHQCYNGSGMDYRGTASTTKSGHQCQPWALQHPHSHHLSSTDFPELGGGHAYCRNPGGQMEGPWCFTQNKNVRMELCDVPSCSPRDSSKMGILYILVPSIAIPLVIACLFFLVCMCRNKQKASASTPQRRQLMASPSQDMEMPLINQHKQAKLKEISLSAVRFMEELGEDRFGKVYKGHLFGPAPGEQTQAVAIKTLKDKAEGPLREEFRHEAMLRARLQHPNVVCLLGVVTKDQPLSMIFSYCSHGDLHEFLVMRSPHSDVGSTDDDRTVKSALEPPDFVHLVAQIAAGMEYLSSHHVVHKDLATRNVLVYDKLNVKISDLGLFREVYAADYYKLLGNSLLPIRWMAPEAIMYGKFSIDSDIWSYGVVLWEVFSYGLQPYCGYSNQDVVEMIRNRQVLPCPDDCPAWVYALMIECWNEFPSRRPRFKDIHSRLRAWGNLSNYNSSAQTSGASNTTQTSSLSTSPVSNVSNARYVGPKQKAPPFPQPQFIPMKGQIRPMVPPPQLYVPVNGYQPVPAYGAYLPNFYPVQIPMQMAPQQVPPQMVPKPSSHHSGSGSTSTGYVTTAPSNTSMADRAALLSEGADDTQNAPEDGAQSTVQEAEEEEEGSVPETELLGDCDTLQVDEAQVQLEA
T2 sequence (Q01974 34-943): as above
T2 sequence (Q01974 34-943): as above
T3 sequence (Q01974 with tags, fused parts or gaps T245A): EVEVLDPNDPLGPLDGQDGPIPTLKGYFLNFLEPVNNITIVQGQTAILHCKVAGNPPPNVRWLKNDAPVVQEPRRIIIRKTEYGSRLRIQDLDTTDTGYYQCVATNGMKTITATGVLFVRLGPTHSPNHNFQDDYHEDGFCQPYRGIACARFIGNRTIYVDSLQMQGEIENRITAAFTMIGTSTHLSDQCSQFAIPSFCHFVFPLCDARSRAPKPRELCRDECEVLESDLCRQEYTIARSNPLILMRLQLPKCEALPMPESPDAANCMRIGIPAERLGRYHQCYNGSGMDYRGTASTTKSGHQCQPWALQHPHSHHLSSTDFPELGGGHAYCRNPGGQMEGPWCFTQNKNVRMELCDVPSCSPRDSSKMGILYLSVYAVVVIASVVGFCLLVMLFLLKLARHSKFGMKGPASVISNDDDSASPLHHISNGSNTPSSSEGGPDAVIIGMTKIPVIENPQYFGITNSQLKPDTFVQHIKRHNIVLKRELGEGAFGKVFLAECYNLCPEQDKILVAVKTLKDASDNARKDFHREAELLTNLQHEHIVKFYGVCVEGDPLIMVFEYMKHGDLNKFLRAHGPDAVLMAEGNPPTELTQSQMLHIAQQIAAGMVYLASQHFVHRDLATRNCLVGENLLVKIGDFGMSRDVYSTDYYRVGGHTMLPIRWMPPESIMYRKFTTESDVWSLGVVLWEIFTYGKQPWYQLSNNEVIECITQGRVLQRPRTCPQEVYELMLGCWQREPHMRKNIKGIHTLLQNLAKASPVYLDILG

Turning to “anti-Ror2 antibody: Ror2-specific goat polyclonal IgG raised against the extracellular domain of human Ror2, R&D Systems, AF2064”, in the data set with mouse calvarial bones, the “increase in the osteoblast number” value was 85% and the “increase in the total bone area” value was found to be 50%. In addition, the “autophosphorylation of the Ror2 kinase” value in the data set with Ror2 tyrosine kinase is on record as “significant autophosphorylation”. Further, the “Ror2 homodimer formation (His-tagged with Flag-tagged Ror2)” value with Ror2 receptor is on record as “strongly enhanced”. Further, the “luciferase activity (CRE promoter)” value with Ror2-TrkB chimera was “robust dose-dependent increase”. Also, the “phosphorylation of 14-3-3β protein” value with 14-3-3β protein is reported as “phosphorylation”. For the same molecule, the “antibody effect on matrix mineralization when Ror2 expression is inhibited” value in data set [1] (hMSC infected with Ror2-specific shRNA, 100 nM dex, 9 days) was “disappeared”. Moreover, in data set [1] (hMSC infected with Ror2 adenovirus, no dex, 19 days, vs non-specific goat IgG), the “calcified matrix formation in absence of dex” value is “induced calcified matrix formation”. For the same molecule, in data set [1] (hMSC, osteogenic cocktail with 100 nM dex, increasing amounts of IgG, 9 days), the “extent of calcified matrix formation (alizarin red-S)” value is given as “dose-dependently increased”.

B1: purified recombinant GST-tagged cytosolic domain of human Ror2 (Invitrogen) (protein)
chain: VCMCRNKQKASASTPQRRQLMASPSQDMEMPLINQHKQAKLKEISLSAVRFMEELGEDRFGKVYKGHLFGPAPGEQTQAVAIKTLKDKAEGPLREEFRHEAMLRARLQHPNVVCLLGVVTKDQPLSMIFSYCSHGDLHEFLVMRSPHSDVGSTDDDRTVKSALEPPDFVHLVAQIAAGMEYLSSHHVVHKDLATRNVLVYDKLNVKISDLGLFREVYAADYYKLLGNSLLPIRWMAPEAIMYGKFSIDSDIWSYGVVLWEVFSYGLQPYCGYSNQDVVEMIRNRQVLPCPDDCPAWVYALMIECWNEFPSRRPRFKDIHSRLRAWGNLSNYNSSAQTSGASNTTQTSSLSTSPVSNVSNARYVGPKQKAPPFPQPQFIPMKGQIRPMVPPPQLYVPVNGYQPVPAYGAYLPNFYPVQIPMQMAPQQVPPQMVPKPSSHHSGSGSTSTGYVTTAPSNTSMADRAALLSEGADDTQNAPEDGAQSTVQEAEEEEEGSVPETELLGDCDTLQVDEAQVQLEA
Consider B1, for which the “in vitro kinase assay, immunoblot with phosphotyrosine antibody” value in data set [2] was “Ror2c phosphorylated both 14-3-3 β and itself”.
